Where two headings read alike, the source gives them in different places.
Tests used:
CCF-STTG1 cells [1] = assay: ROS production (cytochrome C reduction) under oxidative stress; type: cell-based, human; conditions: for reduction of ROS production compared to H2O2 200 μM: H2O2 200 μM pretreatment, 24 hr treatment, green tea 100 μM, saffron 25 μM, citicoline 100 μM, trans-R 1 µM, MIX
Procedure: In a second set of experiments, the CCF-STTG1 cell line was pretreated with 200 μM H2O2 for 30 min to explore the effects of the combination under oxidative stress conditions compared to the single agents by analysing cell viability, ROS, and NO productions. In addition, inflammatory biomarkers (TNFα and IL-2), BDNF production, and intracellular apoptotic and neurodegenerative markers activated were also analysed by ELISA kit. A standard procedure based on cytochrome C reduction on CCF-STTG1 cells quantified superoxide anion release. After treatment, 100 μL of cytochrome C (1 mg/mL, Merck Life Science, Rome, Italy) and 100 μL of superoxide dismutase (0.1 mg/mL, Merck Life Science, Rome, Italy) were added to each sample for 30 min in an incubator. At 550 nm, a spectrophotometer (Infinite 200 […], Männedorf, Switzerland) assessed absorbance in cell culture supernatants. O2 rate was represented as the mean SD (%) of nanomoles per decreased cytochrome C per microgram of protein relative to the control (0 line).

BDNF = BDNF quantification ELISA under oxidative stress; type: cell-based, human; conditions: H2O2 200 μM
Procedure: (§1) Human BDNF ELISA Kit (Thermo ScientificTM, Waltham, MA, United States) quantified BDNF in CCF-STTG1 cell supernatants following the manufacturer's instructions. Each well received a biotinylated detection antibody, and the plate was incubated at room temperature for 1 hr. After 45 min of HRP-conjugated streptavidin incubation, TMB substrate solution was added for 30 min, and a stop solution terminated the reaction. To calculate BDNF concentration, absorbance was measured at 450 nm using a spectrometer (Infinite 200 Pro MPlex, Tecan, Männedorf, Switzerland) and compared to the standard curve (0.066–16 ng/mL). The data are presented as mean ± SD (%) compared to the untreated control sample. The cells were also given 10 ng/mL BDNF as a positive control.
as §1, with “Elisa” for “ELISA”, “The data are presented as mean ± SD (%) compared to the untreated control sample. The cells were also given 10 ng/mL BDNF as a positive control.” left out

CCF-STTG1 cells [2] = assay: Cell viability (MTT) under oxidative stress (200 µM H2O2 pretreatment); type: cell-based, human; conditions: H2O2 200 μM
Procedure: In a second set of experiments, the CCF-STTG1 cell line was pretreated with 200 µM H2O2 for 30 min to explore the effects of the combination under oxidative stress conditions compared to the single agents by analysing cell viability, ROS, and NO productions. In addition, inflammatory biomarkers (TNFα and IL-2), BDNF production, and intracellular apoptotic and neurodegenerative markers activated were also analysed by ELISA kit.
A 96-well plate was used to measure cell viability of CCF-STTG1 cells after each stimulation using MTT-based In Vitro Toxicology Assay Kit (Merck Life Science, Milan, Italy), as reported in the literature. After stimulating cells, 1% MTT dye was incubated at 37°C in an incubator with 5% CO2 and 95% humidity, and purple formazan crystals were dissolved in MTT solubilisation solution after 2 hr. In addition, during the quantification, the background interference due to the extract was considered by making an empty sample (without cells but with the treatment), which was subtracted. To assess cell viability, absorbance at 570 nm with 690 nm correction was measured using a spectrometer (Infinite 200 Pro MPlex, Tecan, Männedorf, Switzerland) and compared to the control (0 line, which is 100% viable cells) and expressed in percentage.

human = test system: human; parameters: method as in PMID 23403474; conditions: 500 mg per day for 2 weeks; cited from earlier work
[3] = test system: BBB in vitro model (CCF-STTG1 cocultured with HUVEC on Transwells); conditions: human
rats = test system: rats; parameters: method as in PMID 29470767; conditions: tramadol toxicity, 30 mg/kg orally for 28 consecutive days; cited from earlier work
pTau = assay: Tau (Phospho) [pS199] ELISA under oxidative stress; type: cell-based, human; conditions: H2O2 200 μM pretreatment
Procedure: Tau (Pospho) protein was investigated by Tau (Phospho) [[…]] Human ELISA Kit (Thermo ScientificTM, Waltham, MA, USA) on CCF-STTG1 cell lysates. In summary, 100 μL of each sample was added to the plate, incubated at 37°C for 90 min, removed, and washed three times. Next, add 100 μL of detection solution A to each well and incubate at 37°C for 45 min. Post-incubation, wash wells, add 100 μL detection solution B, and incubate at 37°C for 45 min. After adding 90 μL of substrate solution, the plate was incubated at 37°C for 20 min in the dark. The reaction was stopped with 50 μL of stop solution, and the absorbance was measured at 450 nm using a spectrometer (Infinite 200 […], Männedorf, Switzerland). Results are shown as mean SD (%) relative to the control, and concentration is reported in ng/mL by comparing data to the standard curve (15.6-1,000 pg/mL).

Structure (SMILES)	reduction of ROS production compared to H2O2 200 μM (CCF-STTG1 cells [1])	Permeability values (Papp) ([3]; 4 h)	Permeability values (Papp) ([3]; 12 h)	Permeability values (Papp) ([3]; 24 h)	further results
OO [H2O2]	–	–	–	–	increase in ROS production compared to the control (CCF-STTG1 cells [1]; H2O2 200 μM): about 42%; reduction of BDNF production vs control (BDNF): ~ 30%; decrease in cell viability compared to the control (CCF-STTG1 cells [2]): about 22%
C[N+](C)(C)CCOP(=O)(O)OP(=O)([O-])OC[C@H]1O[C@@H](n2ccc(N)nc2=O)[C@H](O)[C@@H]1O [citicoline, cytidine diphosphate (CDP)-choline]	about 37%	0.2 ×10⁻⁶ cm/s	0.58 ×10⁻⁶ cm/s	0.44 ×10⁻⁶ cm/s	serum malondialdehyde (MDA) levels (human): significantly decreased; vigilance, visual working memory, oxidative stress markers compared to placebo (human): improve human vigilance, visual working memory, and oxidative stress markers
CC(/C=C/C=C(\C)C(=O)O[C@@H]1O[C@H](CO[C@@H]2O[C@H](CO)[C@@H](O)[C@H](O)[C@H]2O)[C@@H](O)[C@H](O)[C@H]1O)=C\C=C\C=C(C)\C=C\C=C(/C)C(=O)O[C@@H]1O[C@H](CO[C@@H]2O[C@H](CO)[C@@H](O)[C@H](O)[C@H]2O)[C@@H](O)[C@H](O)[C@H]1O [crocin]	–	–	–	–	learning and memory (rats): improved learning and memory
Oc1ccc(/C=C/c2cc(O)cc(O)c2)cc1 [trans-R, trans-Resveratrol]	about 46%	0.2 ×10⁻⁶ cm/s	0.83 ×10⁻⁶ cm/s	0.53 ×10⁻⁶ cm/s	pTau expression (in words) (pTau): inhibits its expression, similar to the MIX

Source: publication PMC11461078 (Oxidative Medicine and Cellular Longevity, 2024)
